Reference: PubChem BioAssay (NCI)
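Cultured in 96-well plates, cells were exposed to test compound for 48 hours across five concentrations. Definition used: TGI = concentration required for complete inhibition of growth.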

What was measured:
Test in all cases: NCI tumour cell line growth inhibition, 48 h
[1] = test system: A498 renal
[2] = test system: ACHN renal
[3] = test system: HOP-62 NSCLC
[4] = test system: KM12 colon
[5] = test system: M14 melanoma
[6] = test system: NCI-H23 lung
[7] = test system: OVCAR-4 ovarian
[8] = test system: OVCAR-5 ovarian
[9] = test system: PC-3 prostate
[10] = test system: UO-31 renal

**Q.** For COc1ccc2cc3c4cc5c(cc4cc[n+]3cc2c1OC)OCO5, which TGI [1] is on record?
**A.** > 100 µM

**Q.** What about the TGI [2] of the same molecule?
**A.** > 100 µM

**Q.** What about the TGI [3] of the same molecule?
**A.** 64.3 µM

**Q.** What about the TGI [4] of the same molecule?
**A.** 12.2 µM

**Q.** What about the TGI [5] of the same molecule?
**A.** 68 µM

**Q.** What about the TGI [6] of the same molecule?
**A.** 65.1 µM

**Q.** What about the TGI [7] of the same molecule?
**A.** > 100 µM

**Q.** What about the TGI [8] of the same molecule?
**A.** > 100 µM

**Q.** What about the TGI [9] of the same molecule?
**A.** > 100 µM

**Q.** What about the TGI [10] of the same molecule?
**A.** > 100 µM

**Q.** Oc1ccccc1/C=N/c1nc2cc3sc(/N=C/c4ccccc4O)nc3cc2s1 was tested. Which TGI [1] did it give?
**A.** > 100 µM

**Q.** What about the TGI [2] of the same molecule?
**A.** > 100 µM

**Q.** And the TGI [3]?
**A.** > 100 µM

**Q.** What about the TGI [4] of the same molecule?
**A.** > 100 µM

**Q.** And the TGI [5]?
**A.** > 100 µM

**Q.** What about the TGI [6] of the same molecule?
**A.** > 100 µM

**Q.** What about the TGI [7] of the same molecule?
**A.** > 100 µM

**Q.** And the TGI [8]?
**A.** > 100 µM

**Q.** What about the TGI [9] of the same molecule?
**A.** > 100 µM

**Q.** What about the TGI [10] of the same molecule?
**A.** > 100 µM

**Q.** With C(=N\NC1=NCCCN1)/c1ccc2ccccc2c1 as the molecule, how does the TGI [1] read?
**A.** 20.8 µM

**Q.** What about the TGI [2] of the same molecule?
**A.** 22.2 µM

**Q.** What about the TGI [3] of the same molecule?
**A.** 26.5 µM

**Q.** And the TGI [4]?
**A.** 28 µM

**Q.** What about the TGI [5] of the same molecule?
**A.** 22.1 µM

**Q.** What about the TGI [6] of the same molecule?
**A.** 36.6 µM

**Q.** What about the TGI [7] of the same molecule?
**A.** 39.3 µM

**Q.** And the TGI [8]?
**A.** 21.8 µM

**Q.** What about the TGI [9] of the same molecule?
**A.** 25.5 µM

**Q.** What about the TGI [10] of the same molecule?
**A.** 23.8 µM

**Q.** With COc1cc(NS(C)(=O)=O)ccc1N1Cc2cnc3ccc4[nH]c(C)cc1c4c23 as the molecule, how does the TGI [1] read?
**A.** > 100 µM

**Q.** What about the TGI [2] of the same molecule?
**A.** > 100 µM

**Q.** What about the TGI [3] of the same molecule?
**A.** 71.9 µM

**Q.** And the TGI [4]?
**A.** > 100 µM

**Q.** And the TGI [5]?
**A.** > 100 µM

**Q.** What about the TGI [6] of the same molecule?
**A.** > 100 µM

**Q.** What about the TGI [7] of the same molecule?
**A.** > 100 µM

**Q.** And the TGI [8]?
**A.** > 100 µM

**Q.** And the TGI [9]?
**A.** > 100 µM

**Q.** And the TGI [10]?
**A.** > 100 µM

**Q.** With BrC/C=C/C[P+](c1ccccc1)(c1ccccc1)c1ccccc1 as the molecule, how does the TGI [2] read?
**A.** > 100 µM

**Q.** What about the TGI [3] of the same molecule?
**A.** 58.2 µM

**Q.** And the TGI [4]?
**A.** 14.7 µM

**Q.** What about the TGI [5] of the same molecule?
**A.** 82.4 µM

**Q.** What about the TGI [6] of the same molecule?
**A.** > 100 µM

**Q.** What about the TGI [7] of the same molecule?
**A.** > 100 µM

**Q.** What about the TGI [8] of the same molecule?
**A.** > 100 µM

**Q.** What about the TGI [10] of the same molecule?
**A.** > 100 µM

**Q.** Which TGI [2] does the source give for CC(O)C1CC1(CO)CNc1cc(Cl)nc(N)n1 (centres undefined) here?
**A.** > 100 µM

**Q.** What about the TGI [3] of the same molecule?
**A.** > 100 µM

**Q.** And the TGI [4]?
**A.** > 100 µM

**Q.** And the TGI [6]?
**A.** > 100 µM

**Q.** What about the TGI [7] of the same molecule?
**A.** > 100 µM

**Q.** And the TGI [8]?
**A.** > 100 µM

**Q.** What about the TGI [9] of the same molecule?
**A.** > 100 µM

**Q.** What about the TGI [10] of the same molecule?
**A.** > 100 µM

**Q.** How did the TGI [1] turn out when CCOC(=O)NC(=S)NN(C)C1=NCC(C)(C)S1 was run?
**A.** > 100 µM

**Q.** And the TGI [2]?
**A.** > 100 µM

**Q.** What about the TGI [3] of the same molecule?
**A.** > 100 µM

**Q.** And the TGI [4]?
**A.** > 100 µM

**Q.** And the TGI [8]?
**A.** > 100 µM

**Q.** What about the TGI [9] of the same molecule?
**A.** > 100 µM

**Q.** What about the TGI [10] of the same molecule?
**A.** > 100 µM

**Q.** How did the TGI [2] turn out when C1=CC2=CC=CC3c4nc5ccc6ccccc6c5nc4C(=C1)C23 (centres undefined) was run?
**A.** > 100 µM

**Q.** And the TGI [3]?
**A.** > 100 µM

**Q.** What about the TGI [4] of the same molecule?
**A.** > 100 µM

**Q.** And the TGI [5]?
**A.** > 100 µM

**Q.** What about the TGI [6] of the same molecule?
**A.** > 100 µM

**Q.** And the TGI [7]?
**A.** > 100 µM

**Q.** And the TGI [8]?
**A.** > 100 µM

**Q.** What about the TGI [9] of the same molecule?
**A.** > 100 µM

**Q.** And the TGI [10]?
**A.** > 100 µM

**Q.** Which results are given for O=C1C=CC(=O)N1Nc1ccc([N+](=O)[O-])cc1[N+](=O)[O-]?
**A.** TGI [1]: > 100 µM; TGI [2]: > 100 µM; TGI [3]: > 100 µM; TGI [4]: > 100 µM; TGI [5]: 40 µM; TGI [6]: > 100 µM; TGI [7]: > 79.9 µM; TGI [8]: > 100 µM; TGI [10]: > 100 µM

**Q.** What does the source list for O=C(N=Nc1cc(Cl)ccc1Cl)NNc1cc(Cl)ccc1Cl?
**A.** TGI [1]: 82.3 µM; TGI [3]: 40.7 µM; TGI [4]: 33.9 µM; TGI [5]: 32.5 µM; TGI [6]: 53.1 µM; TGI [8]: 39.8 µM; TGI [9]: 22.8 µM; TGI [10]: 29 µM

**Q.** How did the TGI [1] turn out when CS(=O)(=O)OCCn1c(=O)n(CCOS(C)(=O)=O)c(=O)n(CCOS(C)(=O)=O)c1=O was run?
**A.** > 100 µM

**Q.** And the TGI [2]?
**A.** > 100 µM

**Q.** What about the TGI [3] of the same molecule?
**A.** > 100 µM

**Q.** What about the TGI [4] of the same molecule?
**A.** > 100 µM

**Q.** And the TGI [6]?
**A.** > 100 µM

**Q.** And the TGI [7]?
**A.** > 100 µM

**Q.** And the TGI [8]?
**A.** > 100 µM

**Q.** And the TGI [10]?
**A.** > 100 µM

**Q.** With O=C(NC(Cc1ccc(I)cc1)C(=O)O)c1ccc(I)cc1 (centres undefined) as the molecule, how does the TGI [1] read?
**A.** > 100 µM

**Q.** And the TGI [3]?
**A.** > 100 µM

**Q.** And the TGI [4]?
**A.** > 100 µM

**Q.** And the TGI [6]?
**A.** > 100 µM

**Q.** What about the TGI [7] of the same molecule?
**A.** > 100 µM

**Q.** What about the TGI [8] of the same molecule?
**A.** > 100 µM

**Q.** And the TGI [10]?
**A.** > 36.6 µM
